Test results taken from ChEMBL document CHEMBL3632563, “Synthesis of natural phaeosphaeride A derivatives and an in vitro evaluation of their anti-cancer potential” (Bioorg Med Chem Lett, 2015).
The source made the active and inactive calls. The calls are words filed in the database; no cut-off is given here.

How the values were obtained:
A549 [1] = test: Cytotoxicity against human A549 cells assessed as decrease in cell viability at 10 to 100 uM after 48 hrs by SRB assay; type: functional, cell-based; conditions: for EC50: A549, 48 h
A549 [2] = test: Cytotoxicity against human A549 cells assessed as decrease in cell viability at 10 to 100 uM after 48 hrs by MTT assay; type: functional, cell-based
A549 [3] = test: Cytotoxicity against human A549 cells assessed as decrease in cell viability at 25 to 100 uM after 48 hrs by SRB assay; type: functional, cell-based
[4] = target: Signal transducer and activator of transcription 3 (Homo sapiens, UniProt P40763); test: Inhibition of STAT3 (unknown origin) assessed as reduction in STAT3-DNA binding
[5] = Growth inhibition of human U266 cells; type: functional, cell-based; conditions: U-266

Signal transducer and activator of transcription 3, sequence (P40763 whole entry): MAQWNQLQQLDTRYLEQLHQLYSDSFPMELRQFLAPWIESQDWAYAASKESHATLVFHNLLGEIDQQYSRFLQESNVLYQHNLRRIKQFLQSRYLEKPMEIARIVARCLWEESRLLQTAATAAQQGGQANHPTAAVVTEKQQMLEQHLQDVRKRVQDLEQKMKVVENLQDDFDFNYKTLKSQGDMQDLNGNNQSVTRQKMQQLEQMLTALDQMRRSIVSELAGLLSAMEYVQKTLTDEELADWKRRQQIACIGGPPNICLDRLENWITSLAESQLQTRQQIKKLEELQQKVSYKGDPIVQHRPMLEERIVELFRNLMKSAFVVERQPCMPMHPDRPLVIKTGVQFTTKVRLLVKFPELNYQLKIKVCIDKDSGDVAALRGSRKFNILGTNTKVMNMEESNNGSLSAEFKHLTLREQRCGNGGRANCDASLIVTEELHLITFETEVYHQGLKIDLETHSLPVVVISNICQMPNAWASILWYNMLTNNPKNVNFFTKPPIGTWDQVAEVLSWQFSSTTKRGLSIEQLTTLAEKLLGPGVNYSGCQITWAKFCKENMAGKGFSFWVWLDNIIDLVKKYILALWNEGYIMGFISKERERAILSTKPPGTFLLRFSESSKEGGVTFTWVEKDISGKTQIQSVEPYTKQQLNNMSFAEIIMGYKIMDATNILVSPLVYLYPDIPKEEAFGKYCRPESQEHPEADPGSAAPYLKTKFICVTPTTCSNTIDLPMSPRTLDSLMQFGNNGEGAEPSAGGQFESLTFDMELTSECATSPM

For `CCCCC[C@@H]1OC2=C(C(=O)NC2(COC)OC)[C@H](O)[C@@]1(C)O` (some centres undefined), the Activity (A549 [1]) was “inactive” and the Activity (A549 [2]) was “inactive”.
In the case of `CCCCC[C@@H]1OC(/C(C)=N/OC)=C(C(=O)O)[C@H](O)[C@@]1(C)O`, the Activity (A549 [1]) is reported as “inactive” and the Activity (A549 [2]) is reported as “inactive”.
For `C=C1C2=C(C(=O)N1OC)[C@H](OC(C)=O)[C@@](C)(O)[C@H](CCCCC)O2`, the Activity (A549 [3]) was “Active”, the Activity (A549 [1]) was “Dose-dependent effect” and the EC50 (A549 [1]) was 49 µM. The Activity (A549 [2]) was “Active”.
For `C=C1C2=C(C(=O)N1OC)[C@H](O)[C@@](C)(O)[C@H](CCCCC)O2`, the Activity (A549 [3]) was “Active”, the Activity (A549 [1]) was “Dose-dependent effect” and the EC50 (A549 [1]) was 46 µM. The IC50 [4] was 610 µM, the EC50 [5] was 6.7 µM and the Activity (A549 [2]) was “Active”.
Work on `CO[C@@]12[C@H](COC(N)=O)C3=C(C(=O)C(C)=C(N)C3=O)N1C[C@@H]1N[C@@H]12` [MITOMYCIN] yielded an EC50 (A549 [1]) of 5.2 µM.
With `C=C1C2=C(C(=O)N1OC)[C@H](OC(=O)CCl)[C@@](C)(O)[C@H](CCCCC)O2` the Activity (A549 [3]) was “Active”, the Activity (A549 [1]) was “Dose-dependent effect” and the EC50 (A549 [1]) was 33 µM. The Activity (A549 [2]) was “Active”.
